Data published in ChEMBL document CHEMBL1132085, “Analogues of 4,5-bis(3,5-dichlorophenyl)-2-trifluoromethyl-1H-imidazole as potential antibacterial agents” (1999).
≈ marks a conversion by molar mass, not a printed value.

How the values were obtained:
Type in all cases: functional
Staphylococcus aureus = assay: Antibacterial activity against methicillin resistant Staphylococcus aureus (MRSA)
Escherichia coli [1] = assay: Antibacterial activity against Escherichia coli +polymyxin (Ec+)
Escherichia coli [2] = assay: Antibacterial activity against Escherichia coli (Ec)
Bacillus subtilis = assay: Antibacterial activity against Bacillus subtilis (Bs)

Structure (SMILES)	MIC (Staphylococcus aureus) [µg/mL]	MIC (Escherichia coli [1]) [µg/mL]	MIC (Escherichia coli [2]) [µg/mL]	MIC (Bacillus subtilis) [µg/mL]
FC(F)(F)c1nc(-c2cc(Cl)cc(Cl)c2)c(-c2cc(Cl)cc(Cl)c2)[nH]1	0.25 (≈ 0.587 µM)	16 (≈ 37.6 µM)	> 32	4 (≈ 9.39 µM)
CSc1nc(-c2cc(Cl)cc(Cl)c2)c(-c2cc(Cl)cc(Cl)c2)[nH]1	> 32	> 32	> 32	> 32
Clc1cc(Cl)cc(-c2nc[nH]c2-c2cc(Cl)cc(Cl)c2)c1	> 32	8 (≈ 22.3 µM)	> 32	4 (≈ 11.2 µM)
CCNC(=O)c1nc(-c2cc(Cl)cc(Cl)c2)c(-c2cc(Cl)cc(Cl)c2)[nH]1	> 32	> 32	> 32	> 32
COC(=O)c1nc(-c2cc(Cl)cc(Cl)c2)c(-c2cc(Cl)cc(Cl)c2)[nH]1	> 32	> 32	> 32	> 32
Oc1nc(-c2cc(Cl)cc(Cl)c2)c(-c2cc(Cl)cc(Cl)c2)[nH]1	8 (≈ 21.4 µM)	8 (≈ 21.4 µM)	> 32	4 (≈ 10.7 µM)
Cc1nc(-c2cc(Cl)cc(Cl)c2)c(-c2cc(Cl)cc(Cl)c2)[nH]1	> 32	> 32	> 32	> 32
CS(=O)(=O)c1nc(-c2cc(Cl)cc(Cl)c2)c(-c2cc(Cl)cc(Cl)c2)[nH]1	4 (≈ 9.17 µM)	4 (≈ 9.17 µM)	> 32	4 (≈ 9.17 µM)
Nc1nc(-c2cc(Cl)cc(Cl)c2)c(-c2cc(Cl)cc(Cl)c2)[nH]1	2 (≈ 5.36 µM)	8 (≈ 21.4 µM)	> 32	4 (≈ 10.7 µM)
FC(F)(F)c1nc(-c2cc(Cl)cc(Cl)c2)c[nH]1	16 (≈ 56.9 µM)	8 (≈ 28.5 µM)	> 32	16 (≈ 56.9 µM)
Cn1c(C(F)(F)F)nc(-c2cc(Cl)cc(Cl)c2)c1-c1cc(Cl)cc(Cl)c1	8 (≈ 18.2 µM)	> 32	> 32	4 (≈ 9.09 µM)
O=Cc1nc(-c2cc(Cl)cc(Cl)c2)c(-c2cc(Cl)cc(Cl)c2)[nH]1	2 (≈ 5.18 µM)	> 32	> 32	2 (≈ 5.18 µM)
Sc1nc(-c2cc(Cl)cc(Cl)c2)c(-c2cc(Cl)cc(Cl)c2)[nH]1	> 32	> 32	> 32	> 32
